Columns and labels:
[1] = Thermal stability, LCMS (% remaining at 95° C. for 1 h); conditions: 20 mM DMSO stock diluted 100-times into Tris-based PCR buffer
Method: To test for thermal stability (% remaining at 95° C. for 1 h), 20 mM stock solutions of example compounds in DMSO were prepared. The stock solutions were diluted 100-times into a Tris-based PCR buffer and heated to 95° C. for 1 hour in a thermocycler. The solutions were then analyzed by LCMS.
(§1) Compound purity and percent remaining were determined by integrating peaks in the total ion chromatogram using LCMS. Compound peaks were identified in negative mode using the molecular weight without sodium. The mobile phase of acetonitrile and water contained 10 mM ammonium acetate using a Synergi Max-RP column, 50×4.6 mm, 2.5 microns.

[2] = Acid stability in 2% TFA, LCMS; conditions: 3 mM stock diluted 6-times to 2% TFA-NanoPure water
Method: To test for acid stability, a 3% stock solution (9 mg/300 μL) of each example compound was prepared in NanoPure water. A secondary 3 mM stock solution was prepared in NanoPure water. The secondary stock was diluted 6-times in NanoPure water as a control or diluted 6-times into 2.4% TFA-NanoPure water to 2% TFA-NanoPure water for the acid stability experiment. The solutions were heated to 40° C. for 1 hour and analyzed by LCMS.
as §1

Trypsin Gold (Promega) = molecular target: T1, Trypsin Gold (Promega) (Sus scrofa, UniProt P00761); test: Trypsin compatibility with the trypsin-specific substrate BAEE; type: biochemical; conditions: 0.1% surfactant, 200 μM BAEE; for Slope: 0.2 μg Trypsin Gold, absorbance at 253 nm every minute over 10 minutes; for % Trypsin Activity: compared to control of trypsin without surfactant
T1 construct: purchased Promega
Method: Compatibility of the different compounds with trypsin was tested using a trypsin-specific substrate, benzoyl-L-arginine ethyl ester hydrochloride (BAEE). 4% stock solutions (12 mg/300 μL) of example compounds were prepared in NanoPure water. The stock solution was diluted 40 times in 50 mM ammonium bicarbonate, pH 7.8 (0.1% final) with 200 μM of BAEE. The entire sample was transferred to an individual well in a 96-well UV-compatible microplate. The absorbance of the sample was measured at 253 nm using a TECAN M1000 plate reader. After 2 minutes, 0.2 μg of Trypsin Gold (Promega) was added to the reaction and absorbance at 253 nm was monitored every minute over a period of 10 minutes. The resulting activity measurement was compared to the control of trypsin without surfactant present. Trypsin is the most commonly used protease for the digestion of protein mass spectrometry samples. The results from this experiment indicate that the compounds have a minimal effect on trypsin activity and can be used during the sample digestion step.

T1 sequence (P00761 9-231): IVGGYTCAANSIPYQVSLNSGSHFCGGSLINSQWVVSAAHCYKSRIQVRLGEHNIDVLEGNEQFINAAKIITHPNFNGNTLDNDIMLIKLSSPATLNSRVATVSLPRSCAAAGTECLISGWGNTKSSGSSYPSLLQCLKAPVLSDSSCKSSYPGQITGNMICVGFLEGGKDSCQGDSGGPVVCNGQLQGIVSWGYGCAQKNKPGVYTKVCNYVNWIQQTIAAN

Row | Compound | % remaining after 1 hour at 95° C. in Polymerase Buffer C [1] | % remaining after 1 h at 40° C. in 2% TFA [2] | Slope (Trypsin Gold (Promega)) | % Trypsin Activity (Trypsin Gold (Promega))
1 | CC(COC(=O)NCCCS(=O)(=O)[O-])(OCCC(F)(F)C(F)(F)C(F)(F)C(F)(F)F)OCCC(F)(F)C(F)(F)C(F)(F)C(F)(F)F.[Na+] [ZZ-0842, Sodium 3-(((2,2-bis((3,3,4,4,5,5,6,6,6-nonafluorohexyl)oxy)propoxy)carbonyl)amino)propane-1-sulfonate] | >99% | 0% |  | 
2 | CCCCCCOC(C)(COC(=O)NCC(O)CS(=O)(=O)[O-])OCCCCCC.[Na+] (stereo not shown) [RBK-0172] | 8.2% |  |  | 
3 | CCCCCOC(C)(COC(=O)NCC(O)CS(=O)(=O)[O-])OCCCCC.[Na+] (stereo not shown) [RBK-0171] | 13.1% |  |  | 
4 | CC(COC(=O)NCC(O)CS(=O)(=O)[O-])(OCCC(F)(F)C(F)(F)C(F)(F)C(F)(F)C(F)(F)C(F)(F)F)OCCC(F)(F)C(F)(F)C(F)(F)C(F)(F)C(F)(F)C(F)(F)F.[Na+] (stereo not shown) [ZZ-0846, Sodium 3-(((2,2-bis((3,3,4,4,5,5,6,6,7,7,8,8,8-tridecafluorooctyl)oxy)propoxy)carbonyl)amino)-2-hydroxypropane-1-sulfonate] | 93.4% | 2% |  | 
5 | CCCCCCCCCCC1(C)OCC(COC(=O)NCCCS(=O)(=O)[O-])O1.[Na+] (stereo not shown) [AF-0045, Sodium 3-((((2-decyl-2-methyl-1,3-dioxolan-4-yl)methoxy)carbonyl)amino)propane-1-sulfonate] | 89.3% | 0% |  | 
6 | CCCCCOC(C)(COC(=O)NCCCS(=O)(=O)[O-])OCCCCC.[Na+] [RBK-0168] | 5.4% |  |  | 
7 | CCCCCCCCCCCC1(C)OCC(COC(=O)NCC(O)CS(=O)(=O)[O-])O1.[Na+] (stereo not shown) [HW-0797, Sodium 2-hydroxy-3-((((2-methyl-2-undecyl-1,3-dioxolan-4-yl)methoxy)carbonyl)amino)propane-1-sulfonic Acid] | 83.6% | Not soluble |  | 
8 | CCCCCC1(CCCCC)OCC(COC(=O)NCCCS(=O)(=O)[O-])O1.[Na+] (stereo not shown) [JZ-0177, Sodium 3-((((2,2-dipentyl-1,3-dioxolan-4-yl)methoxy)carbonyl)amino)propane-1-sulfonate] | 99.4% | 0% |  | 
9 | CCCCCCCC1(CCCCCCC)OCC(COC(=O)NCC(O)CS(=O)(=O)[O-])O1.[Na+] (stereo not shown) [RBK-0173] | 81.2% | Not soluble |  | 
10 | CCCCCCCCCCCC1(C)OCC(COC(=O)NCCCS(=O)(=O)[O-])O1.[Na+] (stereo not shown) [JRW-1573, Sodium 3-((((2-methyl-2-undecyl-1,3-dioxolan-4-yl)methoxy)carbonyl)amino)propane-1-sulfonate] | 95.0% | 0% | 0.0133 | 92%
11 | CCCCCCCCCCCC1OCC(COC(=O)Nc2ccc(N(CCCS(=O)(=O)[O-])CCCS(=O)(=O)[O-])cc2)O1.[Na+].[Na+] (stereo not shown) [CS-0843, Sodium 3,3′-((4-((((2-undecyl-1,3-dioxolan-4-yl)methoxy)carbonyl)amino)phenyl)-azanediyl)bis(propane-1-sulfonate)] | >99% | 22% |  | 
12 | CC(COC(=O)NCCCS(=O)(=O)[O-])(OCCC(F)(F)C(F)(F)C(F)(F)C(F)(F)C(F)(F)C(F)(F)F)OCCC(F)(F)C(F)(F)C(F)(F)C(F)(F)C(F)(F)C(F)(F)F.[Na+] [ZZ-0849, Sodium 3-(((2,2-bis((3,3,4,4,5,5,6,6,7,7,8,8,8-tridecafluorooctyl)oxy)propoxy)carbonyl)amino)propane-1-sulfonate] | >99% | 2% |  | 
13 | CCCCCCOC(C)(COC(=O)NCCCS(=O)(=O)[O-])OCCCCCC.[Na+] [RBK-0169] | 6.0% |  |  | 
14 | CCCCCCCCCCCC1OCC(COC(=O)NCC(O)CS(=O)(=O)[O-])O1.[Na+] (stereo not shown) [HW-0805, Sodium 2-hydroxy-3-((((2-undecyl-1,3-dioxolan-4-yl)methoxy)carbonyl)amino)propane-1-sulfonate] | 94.2% | Not soluble |  | 
15 | CCCCCCCCCCCCC1OCC(COC(=O)NCCCS(=O)(=O)[O-])O1.[Na+] (stereo not shown) [JRW-1574, Sodium 3-((((2-dodecyl-1,3-dioxolan-4-yl)methoxy)carbonyl)amino)propane-1-sulfonate] | 92.8% | 4% |  | 
16 | CC(COC(=O)NCC(O)CS(=O)(=O)[O-])(OCCC(F)(F)C(F)(F)C(F)(F)C(F)(F)F)OCCC(F)(F)C(F)(F)C(F)(F)C(F)(F)F.[Na+] (stereo not shown) [ZZ-0850, Sodium 3-(((2,2-bis((3,3,4,4,5,5,6,6,6-nonafluorohexyl)oxy)propoxy)carbonyl)amino)-2-hydroxypropane-1-sulfonate] | 90.5% | 0% |  | 
17 | CCCCCCC1(CCCCCC)OCC(COC(=O)NCCCS(=O)(=O)[O-])O1.[Na+] (stereo not shown) [TU-1179, Sodium 3-((((2,2-dihexyl-1,3-dioxolan-4-yl)methoxy)carbonyl)amino)propane-1-sulfonate] | 102.9% | 0% |  | 
18 | CCCCCCCCCCC1OCC(COC(=O)NCC(O)CS(=O)(=O)[O-])O1.[Na+] (stereo not shown) [HW-0801, Sodium 3-((((2-decyl-1,3-dioxolan-4-yl)methoxy)carbonyl)amino)-2-hydroxypropane-1-sulfonic Acid] | 94.1% | Not soluble |  | 
19 | CCCCCCCCCCC1OCC(COC(=O)NCCCS(=O)(=O)[O-])O1.[Na+] (stereo not shown) [JRW-1564, Sodium 3-((((2-decyl-1,3-dioxolan-4-yl)methoxy)carbonyl)amino)propane-1-sulfonate] | 95.2% | 1% |  | 
20 | CCCCCCCCCCCCC1OCC(COC(=O)NCC(O)CS(=O)(=O)[O-])O1.[Na+] (stereo not shown) [HW-0807, Sodium 3-((((2-dodecyl-1,3-dioxolan-4-yl)methoxy)carbonyl)amino)-2-hydroxypropane-1-sulfonic Acid] | Not soluble | Not soluble |  | 
21 | CCCCCCCC1(CCCCCCC)OCC(COC(=O)NCCCS(=O)(=O)[O-])O1.[Na+] (stereo not shown) [RBK-0170] | 88.3% | 0% | 0.0107 | 74%
22 | CCCCCC1(CCCCC)OCC(COC(=O)NCC(O)CS(=O)(=O)[O-])O1.[Na+] (stereo not shown) [JZ-0164, Sodium 3-((((2,2-dipentyl-1,3-dioxolan-4-yl)methoxy)carbonyl)amino)-2-hydroxypropane-1-sulfonate] | 93.8% | 0% |  | 
23 | CCCCCOC(C)(COC(=O)Nc1ccc(N(CCCS(=O)(=O)[O-])CCCS(=O)(=O)[O-])cc1)OCCCCC.[Na+].[Na+] [CS-0853, Sodium 3,3′-((4-(((2,2-bis(pentyloxy)propoxy)carbonyl)amino)phenyl)azanediyl) bis(propane-1-sulfonate)] | 2.5% | 42% |  | 
24 | CCCCCCCCCCCC1(C)OCC(COC(=O)Nc2ccc(N(CCCS(=O)(=O)[O-])CCCS(=O)(=O)[O-])cc2)O1.[Na+].[Na+] (stereo not shown) [SL-1735, Sodium 3,3′-((4-((((2-methyl-2-undecyl-1,3-dioxolan-4-yl)methoxy)carbonyl)amino)phenyl)azanediyl)bis(propane-1-sulfonate)] | 93.6% | 0% |  | 
25 | CCCCCCC1(CCCCCC)OCC(COC(=O)NCC(O)CS(=O)(=O)[O-])O1.[Na+] (stereo not shown) [JZ-0179, Sodium 3-((((2,2-dihexyl-1,3-dioxolan-4-yl)methoxy)carbonyl)amino)-2-hydroxypropane-1-sulfonate] | 83.9% | 100% |  | 
26 | CCCCCCCCCCCC1OCC(COC(=O)NCCCS(=O)(=O)[O-])O1.[Na+] (stereo not shown) [JRW-1565, Sodium 3-((((2-undecyl-1,3-dioxolan-4-yl)methoxy)carbonyl)amino)propane-1-sulfonate] | 95.7% | 1% |  | 

— patent US11939311B2, “Acid-labile surfactants” (Promega Corporation, priority 2019, dated 2024)
